Assay [1] deals with HL-60 cells. The assay can be described thus: Apoptosis in HL-60 cells by flow cytometry (sub-G0 fraction). It is filed as cell-based, human. The conditions noted are these: for percentage of apoptotic cells (sub-G0 fraction): three days post-addition, control 7 percent. As for the experimental part: Cell Lines and Culture Conditions. HL-60, DLD1, and U937 cells were obtained from ATCC (Rockville, Md.). Meth A cells were from Dr. Wolfram Samlowski (University of Utah, Salt Lake City, Utah). The PPC-1 cell line was provided by Dr. Graeme Bolger (University of Alabama, Birmingham, Ala.). For the cell growth and apoptosis experiments, cells were cultured at a density of 150,000 cells/ml in RPMI-1640 with 10% fetal bovine serum at 37° C. in a 5% CO2 humidified atmosphere. Agents were added at the indicated concentrations 24 h after culture initiation. At the indicated time intervals, cells were harvested and washed twice in phosphate buffered saline (PBS) prior to processing for analysis of growth, differentiation, and apoptosis.
Cell Growth, Differentiation and Apoptosis Assays. The number of viable cells was determined using the MTT assay according to the manufacturer's protocol (Promega, Madison, Wis.) or using a Coulter counter. Briefly, a MTT assay is an analytical technique that uses the dye dimethylthiazolyl-diphenyltetrazolium (MTT) which turns from yellow to brownish-purple as it is reduced in the mitochondria of living cells. The assay is useful in calorimetric quantitation of cell viability and proliferation. In contrast, cell differentiation was evaluated using Wright and Non-Specific Esterase (NSE) staining of cells collected on microscope slides by cytospin as previously described (Magrinat, G. et al. (1992) Blood 80: 1880-1884). Apoptosis was assayed by flow cytometry and by determining DNA fragmentation using agarose gel electrophoresis as previously described (Shami, P. J. et al. (1998) Leukemia 12: 1461-1466). For the flow cytometry assay, we used the propidium iodide staining method of Nicoletti et al. (Nicoletti, I. et al. (1991) J. Immunol. Methods 139: 271-279).
To determine if JS-K could induce apoptosis in leukemia cells, it was added to HL-60 cells at concentrations of 0.5 and 1.0 μM. Three days post-addition, the percentage of apoptotic cells was determined by measuring the number of cells in the sub-G0 fraction of the cell cycle using flow cytometry. […]

Assay [2] deals with HL-60 cells. The assay can be described thus: Systemic leukemia model: NOD/SCID mice injected intravenously with HL-60 cells. Format: in vivo. The method, then:
A second experiment was conducted with NOD/SCID mice injected intravenously with HL-60 cells. Control mice appeared to develop systemic disease as evidenced by large abdominal lymph nodes and leukemia cell engraftment in the liver, spleen and bone marrow. Treated mice were administered 1 μmol/kg intravenous JS-K for three to four weeks beginning one day after inoculation. Control mice were treated with vehicle. A human-specific anti-CD15 antibody was utilized in flow cytometric analysis to identify the leukemic cells. […] Additionally, the number and size of enlarged abdominal lymph nodes appeared to be smaller in these animals.

For assay [3], the target named is T1, hGSTA1-1 (Homo sapiens, UniProt P08263).
T1 sequence (P08263 1-222): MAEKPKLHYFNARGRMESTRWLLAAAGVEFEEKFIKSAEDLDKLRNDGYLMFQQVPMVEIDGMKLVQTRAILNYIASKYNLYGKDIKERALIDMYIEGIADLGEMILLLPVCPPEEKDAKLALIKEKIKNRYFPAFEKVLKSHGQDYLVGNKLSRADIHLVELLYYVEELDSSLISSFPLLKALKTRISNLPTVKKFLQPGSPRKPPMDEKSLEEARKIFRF
The experiment in a line: GST-catalysed GSH conjugation of JS-K and NO release. It is filed as biochemical. As for the experimental part: Determination of Specific Activity of Human GSTs Toward JS-K. Purified preparations of recombinant hGSTA1-1, hGSTM1-1 and hGSTP1-1 were obtained from Panvera (Madison, Wis.). The activity of human GST toward CDNB was determined, as described by Habig et al. (Habig, W. H. et al. (1974) J. Biol. Chem. 249: 7130-7139), prior to activity measurements with JS-K to ensure that the enzyme preparations were catalytically active. For activity measurement toward JS-K, the reaction mixture in a final volume of 1 ml contained 100 mM potassium phosphate buffer (pH 6.5), 1 mM GSH, 0.045 mM JS-K, and an appropriate amount of human GST isoenzyme protein. The reaction was started by the addition of JS-K, and the rate of reaction was monitored by measuring decrease in absorbance of JS-K at 298 nm due to its utilization during reaction with GSH. The specific activity toward JS-K was calculated using an extinction coefficient of 18 mM^−1 cm^−1 at 298 nm.
Measurement of NO Release. Chemiluminescence detection and quantification of NO evolving from the reactions of JS-K were conducted using an NO-specific Thermal Energy Analyzer (Model 502A, Thermedics, Analytical Instrument Division, Waltham, Mass.) essentially as previously described (Keefer, L. K. et al. (1996) Methods Enzymol. 268: 281-293). Briefly, pH 7.4 phosphate buffer containing 1 mM GSH was sparged with inert gas until a steady detector response was established. Where indicated, GSTs were added to a final concentration of 1.67 ug of enzyme/ml. The NO release profile was followed at 37° C. for 45 min after injecting JS-K at a final concentration of 133 nM to start the reaction. The resulting curve was integrated to quantify the amount of NO released/mole of compound.

The test system of assay [4] is HL-60 cells. The assay can be described thus: Combination treatment: JS-K pretreatment then etoposide or daunorubicin, MTT. It is filed as cell-based, human. The settings on record: HL-60, JS-K pretreatment (0.25 μM). The method, then: Combination treatment. For combined drug treatment, HL-60 cell lines were pretreated with JS-K (0.25 μM) for 6 h in RPMI 1640 at 37° C. The JS-K-containing culture medium was then removed and replaced with fresh RPMI-1640. Three different concentrations of either etoposide (0.2, 0.3 and 0.4 μM) or daunorubicin (5, 10 and 50 nM) were added to the pretreated HL-60 cells. The cells were incubated at 37° C. for additional 48 hours. Solution of 3-[4,5-dimethylthiazol-2-yl]-2,5-[…] (MTT) tetrazolium salt (1 mg/ml) was added to the cells. The cells were incubated again for 3 h to allow for MTT metabolism to formazan by the succinate-tetrazolim reductase system active only in viable cells. A solution of 0.04 N HCl in isopropyl alcohol was added to stop the MTT assay. The supernatant was then aspirated and 150 μl of trituration was added to dissolve the water-insoluble blue formazan. The optical densities were read on a spectrophotometric plate reader at a single wavelength of 570 nm. The absorbance for control cells was defined as an MTT activity of 100%.

[5] abbreviates: 1 μmol/kg intravenous for three to four weeks, versus controls.

“Also recorded” adds a separate entry of the source.

Regarding `CCOC(=O)N1CCN(/[N+]([O-])=N/Oc2ccc([N+](=O)[O-])cc2[N+](=O)[O-])CC1` [JS-K, O^2-(2,4-dinitrophenyl) 1-[(4-ethoxycarbonyl)piperazin-1-yl]diazen-1-ium-1,2-diolate], the “percentage of apoptotic cells (sub-G0 fraction)” value is reported as 27±3% in assay [1] (0.5 μM) and 43±2% in assay [1] (1.0 μM). In addition, in assay [1] (HL-60, flow cytometry, co-administration of C-VAD-FMK and JS-K, p=0.44 vs untreated), the “percentage of apoptotic cells” value is reported as 2.65+/−0.28%. The “colonies from cultured bone marrow in human hematopoietic cell-selective semi-solid medium” value in assay [2] (1 μmol/kg intravenous) was “few if any colonies of cancerous cells”. Moreover, the “leukemic cell engraftment (anti-CD15 flow cytometry)” value in assay [2] (setting [5]) is “decreased leukemic cell engraftment in the bone marrow and liver”. Further, the “number and size of enlarged abdominal lymph nodes” value in assay [2] (setting [5]) was “smaller”. Besides, in assay [2] (three to four weeks after inoculation), the “treated mice with almost no evidence of disease” value was “Two of the five”. In addition, in assay [3], the “catalysis of JS-K conjugation” value is reported as “much superior to hGSTP1-1”. Besides, in assay [4], the “effect of JS-K pretreatment on daunorubicin and etoposide” value was “additive effect; also recorded: significantly enhanced efficacy of daunorubicin and etoposide”.

The values are drawn from patent US8404665B2, “In vivo use of glutathione S-transferase activated nitric oxide donors” (University of Utah Research Foundation, priority 2002, dated 2013).
